Assays:
HT-29 = test: Antiproliferative activity against human HT-29 cells after 48 hrs by MTT assay; type: functional, cell-based; conditions: HT-29, 48 h
PC-3 = test: Antiproliferative activity against human PC3 cells after 48 hrs by MTT assay; type: functional, cell-based; conditions: PC-3, 48 h
[1] = 1-octanol/water partition coefficient, log P of the compound at 300 uM by UV-Vis spectrophotometric analysis; type: physicochemical
DU-145 = test: Antiproliferative activity against human DU145 cells after 48 hrs by MTT assay; type: functional, cell-based; conditions: DU-145, 48 h
HCT-116 = test: Antiproliferative activity against human HCT116 cells after 48 hrs by MTT assay; type: functional, cell-based; conditions: HCT-116, 48 h

IC50 (HT-29) [µM] | IC50 (PC-3) [µM] | logP at 300 µM [1] | IC50 (DU-145) [µM] | IC50 (HCT-116) [µM] | SMILES
7.4 | 7.8 | 3.1 | 13.8 | 10.7 | COc1ccc(/C=C/C(=O)c2cc(OC)c(OC)c(OC)c2)cc1
89.1 | 48.1 |  | 84.9 | 29.5 | COc1ccc(/C=C/C(=O)c2cc(OC)c(OC)c(OC)c2)cc1OCCCC(=O)NCCCCN(CCCN)CCCCNCCCN
> 100 | 79.3 |  | 54.8 | 20 | COc1cc(C(=O)/C=C/c2ccc(OCCCC(=O)NCCCCNCCCN)cc2)cc(OC)c1OC
> 100 | 31.8 | -1.57 | 28.5 | 55.8 | COc1ccc(/C=C/C(=O)c2cc(OC)c(OC)c(OC)c2)cc1OCCCC(=O)NCCCNCCCCNCCN
> 100 | > 100 | -1.43 | > 100 | > 100 | COc1cc(C(=O)/C=C/c2ccc(OCCCC(=O)NCCCNCCCCN)cc2)cc(OC)c1OC
91.7 | 81.6 |  | 92.5 | 75.4 | COc1cc(C(=O)/C=C/c2ccc(OCCCC(=O)NCCCCN(CCCN)CCCCNCCCN)cc2)cc(OC)c1OC
98 | 34 | -1.98 | 35.4 | 33.8 | COc1cc(C(=O)/C=C/c2ccc(OCCCC(=O)NCCCNCCCCNCCN)cc2)cc(OC)c1OC
> 100 | 81 |  | > 100 | > 100 | COc1ccc(/C=C/C(=O)c2cc(OC)c(OC)c(OC)c2)cc1OCCCC(=O)NCCCNCCCCN
> 100 | 51 | -1.28 | 99.3 | 38 | COc1ccc(/C=C/C(=O)c2cc(OC)c(OC)c(OC)c2)cc1OCCCC(=O)NCCCCNCCCN
74.7 | 60.6 |  | 82.3 | 73.6 | COc1ccc(/C=C/C(=O)c2cc(OC)c(OC)c(OC)c2)cc1OCCCC(=O)NCCCCN(CCCN)CCCCN
87.2 | 55.4 |  | 86.8 | 29.2 | COc1cc(C(=O)/C=C/c2ccc(OCCCC(=O)NCCCCN(CCCN)CCCCN)cc2)cc(OC)c1OC
23.1 | 0.09 | 2.99 | 6.3 | 0.85 | COc1ccc(/C=C/C(=O)c2cc(OC)c(OC)c(OC)c2)cc1O
